# Measured values from publication PMC12057357, “Population pharmacokinetics study on nebulized and intravenous administration of polymyxin B in patients with pneumonia caused by multidrug-resistant gram-negative bacteria” (Antimicrobial Agents and Chemotherapy, 2025).
# Bridge positions count the residues as written; N and C are the ends. Square brackets hold non-standard residues; d marks the D form. Peptide text beside a SMILES is read from it. * marks the point of attachment. X1 = CC[C@H](C)CCCCC(=O)*; Dab = NCC[C@H](N)C(=O)O
# What was measured:
# [1] = system: Pseudomonas aeruginosa; parameters: method as in PMID 28031207; settings: ELF; cited from earlier work
# [2] = plasma; cited from earlier work
# Description: (§1) Monte Carlo simulations were used to determine the probability of target attainment (PTA), aiding in the selection of the optimal dosage regimen. According to consensus guidelines, the fAUC/MIC is the most relevant PK/PD index associated with bacterial killing ([11]). In this study, we evaluated the PTA of fAUC/MIC across different dosage regimens in cases of pathogenic infection with varying MIC values to better understand the optimal treatment approach. The preclinical data on PMB are limited, and its in vitro activities are similar to those of colistin ([11], [27]). Consequently, some data ...
# [3] = Population pharmacokinetic model of PMB in plasma and ELF of patients with MDR-GNB pneumonia; assay type: in vivo, human
# Method: This was a single-center, prospective study conducted between January 2022 and October 2024 at Fujian Medical University Union Hospital. […] Patients with severe bronchoconstriction, refractory hypoxemia, pregnancy, or those undergoing continuous renal replacement therapy were excluded.
# IV PMB was administered according to the manufacturer’s instructions: a loading dose of 100–150 mg ([…]) followed by maintenance doses of 40–75 mg every 12 h, with an infusion time of approximately 1 h. The decision to administer PMB and its dosing regimen was made by the medical team. Concurrently, selected patients received nebulized PMB at a dose of 25 mg dissolved in 5 mL of half-normal sterile water for injection every 12 h via vibration mesh nebulizer or jet nebulizer over 15 min. Eligible patients received nebulized PMB for 3 days for the treatment of pneumonia. During nebulization, ventilation was performed at a constant flow, targeting an inspiration-to-expiration ratio of 0.5. The respiratory rate was set at 18 breaths/min; the tidal volume was set at 8 mL/kg; and the positive end-expiratory pressure was set at 6 cmH2O.
# For all patients, when the PMB concentration in the plasma and lungs reached a steady state (after at least four doses), one to six samples were collected into EDTA tubes at the following time points: 0 h before administration and 1, 2, 4, 6, 8, and 12 h after administration. The plasma and bronchoalveolar lavage (BAL) fluid samples for drug assays were centrifuged at 12,000 rpm for 5 min. The supernatant was then collected and stored at −80°C until analysis.
# ELF is obtained through BAL. This procedure involves inserting and wedging a fiberoptic bronchoscope into a subsegment of the middle or lower lung lobe. Before performing BAL, the patient’s CT scan is reviewed to select the affected lung segment for lavage. The lavage is performed at the same location using a 0.9% saline solution. The aspirate from the first lavage is usually collected separately and discarded due to potential severe contamination with cells from the proximal airway. Subsequent recovered aspirates are combined, and their volume is measured and recorded. The remaining volume of BAL fluid is immediately centrifuged to separate the supernatant and the cell pellet. Samples used for measuring urea and drug concentrations in the supernatant are collected and frozen until analysis. The concentration of PMB in ELF can be determined using urea as an endogenous biomarker ([4], [8]). Urea concentration in plasma and ELF is typically the same because urea is […], has a low molecular weight, and can rapidly diffuse to establish equilibrium across the capillary-alveolar membrane. By measuring the urea concentration in both BAL fluid and plasma, the dilution factor can be determined, allowing for the calculation of the actual drug concentration in ELF (Eq.1):
# (1) CELF,PMB=CBAL, PMB×Cplasma,urea /CBAL,urea.
# As polymyxin B1 and B2 structures, molecular weights, pharmacological activities, and PK properties were […], their plasma concentrations were summed to obtain total PMB concentrations ([24]). Concentrations of PMB were determined by a validated liquid chromatography–tandem mass spectrometry assay with minor modifications ([25]). […] For plasma, intra- and interday accuracies ranged from 80.6% to 114.9%, with a coefficient of variation (CV) of 2.6%–14.8%. For BAL fluid, accuracy ranged from 82.3% to 114.3%, with a CV of 3.4%–13.7%. All sample concentrations exceeded the lower limit of quantification (LLOQ).
# PopPK analyses were conducted using a non-linear mixed-effect modeling program, NONMEM, version 7.5 (Icon Development Solutions, USA). Model development utilized first-order conditional estimation to assess the interaction between patient variability and residual variability. One- or two-compartment structural models were evaluated for both ELF and plasma drug exposure to establish the basic model that best fitted the original data. […]
# [4] = system: extensively drug-resistant GNB; settings: cited from earlier work
# Method: While an IV loading dose enhances early plasma exposure of PMB, it has minimal impact on early ELF exposure. […] Currently, the dosing regimen for PMB nebulization in clinical practice is predominantly empirical, typically involving doses of 25 or 50 mg administered twice daily ([19][–][21]). In a PK analysis of 105 patients ...
# [5] = system: Pseudomonas aeruginosa (ATCC 27853, PAO1, and FADDI-PA022); settings: cited from earlier work
# Description: as §1, with “[…] Such high fAUC/MIC” for “Consequently, some data”
# [6] = system: Acinetobacter baumannii (ATCC 19606, 248–01-C.248, and N-16870.213); settings: cited from earlier work
# [7] = cited from earlier work
# Description: The issue of dosage adjustments based on renal function has been a contentious topic ...
# [8] = system: human alveolar epithelial A549 cells; parameters: method as in PMID 34228550, PMID 28416543; settings: cited from earlier work
# [9] = bootstrap median, 1,000 resampled data sets
compound,measurement,setting,value
colistin,fAUCELF/MIC targets,[1],"684–1,050"
"CC[C@H](C)CCCCC(=O)N[C@@H](CCN)C(=O)N[C@H](C(=O)N[C@@H](CCN)C(=O)N[C@H]1CCNC(=O)[C@H]([C@@H](C)O)NC(=O)[C@H](CCN)NC(=O)[C@H](CCN)NC(=O)[C@H](CC(C)C)NC(=O)[C@@H](Cc2ccccc2)NC(=O)[C@H](CCN)NC1=O)[C@@H](C)O [PMB, Polymyxin B] (X1-[Dab]T[Dab][Dab][Dab][dF]L[Dab][Dab]T; lactam 4-C)",unbound fraction,[2],0.42
same,AGE on V3 (covariate effect),[3]; [9],1.28
same,ALB on CL3 (covariate effect),[3]; [9],−0.894
same,"CL1, central compartment clearance of plasma",[3]; [9],1.39 L/h
same,"CL2, intercompartmental clearance of plasma",[3]; [9],13.1 L/h
same,"CL3, central compartment clearance of ELF",[3]; [9],0.186 L/h
same,"CL4, intercompartmental clearance of ELF",[3]; [9],3.44 L/h
same,"F, bioavailability of nebulization",[3]; [9],0.556
same,"Q, intercompartmental clearance between compartments 1 and 3",[3]; [9],0.03 L/h
same,"V1, central compartment distribution volume of plasma",[3]; [9],27.59 L
same,"V2, intercompartmental (peripheral) distribution volume of plasma",[3]; [9],17.11 L
same,"V3, central compartment distribution volume of ELF",[3]; [9],0.896 L
same,"V4, intercompartmental (peripheral) distribution volume of ELF",[3]; [9],4.33 L
same,"AUC24h, ELF","[3]; epithelial lining fluid, 76 patients, median (interquartile range), nebulized PMB 25 mg q12h alone or with IV PMB, LC-MS/MS, urea-corrected BAL",52.5 (35.3–102.8) mg·h/L
same,AGE on V3 (covariate effect),[3]; final PopPK model estimate,1.28
same,ALB on CL3 (covariate effect),[3]; final PopPK model estimate,−0.893
same,"CL2, intercompartmental clearance of plasma",[3]; final PopPK model estimate,13.11 L/h
same,"CL3, central compartment clearance of ELF",[3]; final PopPK model estimate,0.186 L/h
same,"CL4, intercompartmental clearance of ELF",[3]; final PopPK model estimate,3.44 L/h
same,"F, bioavailability of nebulization (fraction of drug reaching the lungs)",[3]; final PopPK model estimate,0.557
same,"Q, intercompartmental clearance between compartments 1 and 3 (plasma and ELF)",[3]; final PopPK model estimate,0.03 L/h
same,"V1, central compartment distribution volume of plasma",[3]; final PopPK model estimate,27.6 L
same,"V2, intercompartmental (peripheral) distribution volume of plasma",[3]; final PopPK model estimate,17.1 L
same,"V3, central compartment distribution volume of ELF",[3]; final PopPK model estimate,0.896 L
same,"V4, intercompartmental (peripheral) distribution volume of ELF",[3]; final PopPK model estimate,4.35 L
same,clearance,"[3]; human, plasma, final PopPK model estimate, NONMEM, 76 patients, steady state, read-out: CL1, central compartment clearance of plasma (converted)",23.2 mL/min
same,"AUC24h, plasma","[3]; plasma, median (interquartile range), nebulized PMB alone or with IV PMB, LC-MS/MS",35.0 (22.0–54.2) mg·h/L
same,"bacterial clearance time, inhalation group vs IV group",[4]; P = 0.002,significantly shorter
same,"risk of acute kidney injury, inhalation group vs IV group",[4]; P = 0.025,trend toward a reduced risk
same,AUC/MIC targets in ELF associated with antibacterial activity,[5],"1,326 to 1,506"
same,AUC/MIC targets in ELF associated with antibacterial activity,[6],326 to 989
same,average urine recovery rate,[7],23.56%
same,CL1,[7]; range across previous PMB two-compartment models,1.19 to 2.63 L/h
same,CL2,[7]; range across previous studies,1.98 to 13.83 L/h
same,V1,[7]; range across previous studies,6.35 to 33.77 L
same,V2,[7]; range across previous studies,7.92 to 78.2 L
same,urinary recovery rate,"[7]; range, ref 39 (Sandri et al.)",0.98% to 17.4%
same,effect on human alveolar epithelial A549 cells,[8],"disrupt redox balance, mitochondrial beta-oxidation, and membrane lipid biosynthesis"
